Test results from patent US20170275270A1, “BENZYL SUBSTITUTED INDAZOLES” (Bayer Pharma Aktiengesellschaft, priority 2014, published 2017).
pIC50: −log10 of the molar value. Where “and” joins values, the source holds several entries; their conditions need not be identical. Identical values can stand only once. Counter-ions that a name gives are not always drawn. Like-named read-outs stand apart in the source and are kept apart here.

Assays:
[1] = target: Bub1 (Homo sapiens, UniProt O43683); assay: Formation-Assay: phosphorylation status of histone 2A by inhibition of kinase activity of Bub1; assay type: cell-based; details: 16 h
Experimental: Biological Assay 4.1: Formation-Assay
Cell-Based Mechanistic Assay: Changes of Phosphorylation Status of Histone 2A by Inhibition of Kinase Activity of Bub1
This assay determines the suppression of histone 2A phosphorylation by a Bub1 kinase inhibitor during co-treatment with Nocodazole. 25000 cells (cells were ordered from ATCC) were seeded in 96 well plate for 5 h at 37° C. Cells were treated with Nocodazole (1 μg/ml) and varying concentrations (between 3 nM and 10 μM) of test compounds for 16 h. Cells were fixed (20 min, Fixing solution R&D), washed three times with PBS and blocked with Odyssey blocking buffer before incubating with the primary antibody against phosphorylated H2A (5 μg/ml ABIN482721) overnight at 2-8° C. After washing, secondary IRDye-labeled antibody mix with cell stains was added for 1 h and washed again with PBS. Plates were scanned with LiCor Odyssey Infrared Imager CLx at 800 nm for P-H2A and at 700 nm for cell stains Draq5/Sapphire. The quotient of 800 nm and 700 nm for Nocodazole only treated cells was set as 100% and the quotient of 800 nm and 700 nm of untreated cells was set as 0%.
Histone H2A is an immediate intracellular substrate of Bub1 kinase. Determination of the phosphorylation status of Histone H2A provides a direct measure of the intracellular activity of Bub1 kinase.

[2] = tested on: HeLa; assay: Proliferation assay (HeLa cell line);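 note: crystal violet staining of cell number, scaled between a plate stained before dosing (0%) and cells left untreated (100%), compounds tested at 0.001-10 µM, IC50 via 4-parameter fit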
[3] = target: T1, catalytic domain of human Bub1 (amino acids 704-1085) (Homo sapiens, UniProt O43683); assay: Bub1 kinase assay (TR-FRET); assay type: biochemical
T1 construct: catalytic domain of human Bub1 (amino acids 704-1085); His6 (N); made in house; host or cells: Hi5 insect cells
In short: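 Compounds from 2 mM DMSO stocks, serially diluted 1:3.4, incubated with enzyme at 22° C for 60 min. Stopped with EDTA, then 1 h with streptavidin-XL665, anti-phosphoserine antibody and Eu-labelled anti-mouse IgG. Phosphorylated biotin-peptide read by TR-FRET; IC50 by 4-parameter logistic fit.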

[4] = tested on: HeLa human cervical tumor cells; assay: Proliferation assay (HeLa+Paclitaxel); details: read-out: Biological Assay 3: HeLa + Paclitaxel IC50, 3 nM paclitaxel, crystal violet;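 note: compounds at 0.001-10 µM added 4 h after paclitaxel, 92 h exposure, absorbance normalized to zero-point plate (0%) and untreated cells (100%), IC50 from 4-parameter fit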
[5] = Biological Assay 4.1: H2A Formation IC50, co-treatment with Nocodazole 1 μg/ml
[6] = Homo sapiens, 96 h, read-out: Biological Assay 2: Proliferation assay (HeLa cell line) median IC50
[7] = 10 μM ATP, read-out: Biological Assay 1: Bub1 kinase assay median IC50
[8] = Biological Assay 1: Bub1 kinase assay median IC50, 10 μM ATP
[9] = read-out: Biological Assay 2: Proliferation assay (HeLa cell line) median IC50, 4 days, crystal violet

T1 sequence (O43683 704-1085): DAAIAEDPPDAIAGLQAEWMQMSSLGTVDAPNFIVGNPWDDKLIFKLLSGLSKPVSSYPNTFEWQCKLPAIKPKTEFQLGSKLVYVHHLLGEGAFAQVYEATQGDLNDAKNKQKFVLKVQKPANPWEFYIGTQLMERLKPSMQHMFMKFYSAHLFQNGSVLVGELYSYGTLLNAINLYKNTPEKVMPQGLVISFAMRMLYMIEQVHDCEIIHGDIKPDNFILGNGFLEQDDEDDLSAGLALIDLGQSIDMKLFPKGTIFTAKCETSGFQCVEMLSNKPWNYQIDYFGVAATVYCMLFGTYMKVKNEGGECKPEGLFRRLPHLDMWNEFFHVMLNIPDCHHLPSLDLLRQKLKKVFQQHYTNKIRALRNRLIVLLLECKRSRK
Sequence of Bub1 (O43683 whole entry): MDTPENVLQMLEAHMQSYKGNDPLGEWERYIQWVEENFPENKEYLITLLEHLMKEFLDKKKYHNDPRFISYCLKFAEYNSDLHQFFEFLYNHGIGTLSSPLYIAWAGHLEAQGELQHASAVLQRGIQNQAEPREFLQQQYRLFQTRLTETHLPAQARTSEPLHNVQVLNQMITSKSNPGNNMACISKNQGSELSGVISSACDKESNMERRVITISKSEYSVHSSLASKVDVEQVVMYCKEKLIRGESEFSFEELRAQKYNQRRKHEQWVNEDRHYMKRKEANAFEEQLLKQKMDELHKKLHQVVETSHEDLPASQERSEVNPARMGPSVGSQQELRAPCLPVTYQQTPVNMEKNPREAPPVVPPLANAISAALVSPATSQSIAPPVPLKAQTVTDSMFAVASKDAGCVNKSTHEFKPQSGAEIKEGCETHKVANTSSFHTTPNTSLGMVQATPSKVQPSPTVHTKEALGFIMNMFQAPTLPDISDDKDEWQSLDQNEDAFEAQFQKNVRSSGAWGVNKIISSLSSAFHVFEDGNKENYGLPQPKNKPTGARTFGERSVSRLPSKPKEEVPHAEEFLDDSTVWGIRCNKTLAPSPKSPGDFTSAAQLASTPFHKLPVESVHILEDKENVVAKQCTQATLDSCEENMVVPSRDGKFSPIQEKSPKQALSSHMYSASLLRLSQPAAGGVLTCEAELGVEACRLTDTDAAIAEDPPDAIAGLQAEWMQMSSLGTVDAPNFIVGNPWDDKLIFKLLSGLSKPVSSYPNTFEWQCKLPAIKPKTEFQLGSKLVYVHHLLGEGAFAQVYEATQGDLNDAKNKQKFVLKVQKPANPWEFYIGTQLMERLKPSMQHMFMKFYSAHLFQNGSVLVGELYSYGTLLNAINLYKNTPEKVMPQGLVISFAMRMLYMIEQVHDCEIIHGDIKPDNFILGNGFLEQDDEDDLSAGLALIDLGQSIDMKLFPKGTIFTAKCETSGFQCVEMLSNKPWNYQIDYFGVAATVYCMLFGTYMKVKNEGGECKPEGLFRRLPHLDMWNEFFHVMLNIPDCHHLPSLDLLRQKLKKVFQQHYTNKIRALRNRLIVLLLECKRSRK

| Molecule | pIC50 [1, 5] | pIC50 [2, 6] | pIC50 [3, 7] | pIC50 [4] | pIC50 [3, 8] | pIC50 ([1]; co-treatment with Nocodazole 1 μg/ml, read-out: Biological Assay 4.1: H2A Formation IC50) | pIC50 [2, 9] |
| --- | --- | --- | --- | --- | --- | --- | --- |
| CS(=O)(=O)CCCc1cnc(-c2nn(Cc3c(F)cc(OCCO)cc3F)c3ccccc23)nc1Nc1ccncc1 [Example 2-4-2, 2-{3,5-difluoro-4-[(3-{5-[3-(methylsulfonyl)propyl]-4-(pyridin-4-ylamino)pyrimidin-2-yl}-1H-indazol-1-yl)methyl]phenoxy}ethanol] | 7.15 | < 5.00 |  | 5.41 | 7.82 |  |  |
| Cc1cc(Nc2nc(-c3nn(Cc4c(F)cc(OCCO)cc4F)c4ccccc34)nc3c2CCC3)c(F)cn1 [Example 2-6-21, 2-{3,5-difluoro-4-[(3-{4-[(5-fluoro-2-methylpyridin-4-yl)amino]-6,7-dihydro-5H-cyclopenta[d]pyrimidin-2-yl}-1H-indazol-1-yl)methyl]phenoxy}ethanol] | 7.08 | 5.47 |  | 6.77 | 7.96 |  |  |
| 2-{3,5-difluoro-4-[(3-{5-[2-(methylsulfonyl)ethyl]-4-(eparate-4-ylamino)pyrimidin-2-yl}-1H-indazol-1-yl)methyl]phenoxy}ethanol [Example 2-4-1] |  |  | 7.92 | 5.44 |  | 7.02 | < 5.00 |
| Cc1cc(Nc2nc(-c3nn(Cc4c(F)cc(OCCO)cc4F)c4ccccc34)nc3c2CCC3)c(C)cn1 [Example 2-6-20, 2-{4-[(3-{4-[(2,5-dimethylpyridin-4-yl)amino]-6,7-dihydro-5H-cyclopenta[d]pyrimidin-2-yl}-1H-indazol-1-yl)methyl]-3,5-difluorophenoxy} ethanol] | 8.74 | 5.47 | 7.18 | 6.85 |  |  |  |
| CC(=O)Nc1cc(Nc2nc(-c3nn(Cc4c(F)cc(OCCO)cc4F)c4ccccc34)ncc2C2CCN(CC(F)(F)F)CC2)ccn1 [Example 2-6-13, N-{4-[(2-{1-[2,6-difluoro-4-(2-hydroxyethoxy)benzyl]-1H-indazol-3-yl}-5-[1-(2,2,2-trifluoroethyl)piperidin-4-yl]pyrimidin-4-yl)amino]pyridin-2-yl}acetamide] | 8.08 | 5.01 |  | 6.41 | 7.28 |  |  |
| CCOc1cc(F)c(Cn2nc(-c3ncc(C4CCNCC4)c(Nc4ccncc4)n3)c3ccccc32)c(F)c1 [Example 2-9-3, 2-[1-(4-ethoxy-2,6-difluorobenzyl)-1H-indazol-3-yl]-5-(piperidin-4-yl)-N-(pyridin-4-yl)pyrimidin-4-amine, salt with hydrochloric acid] | < 5.52 and 5.31 |  |  | 6.62 | 8.24 |  | 5.96 |
| CCOc1cc(F)c(Cn2nc(-c3ncc(CC4CNC4)c(Nc4ccncc4)n3)c3ccccc32)c(F)c1 [Example 2-9-4, 5-(azetidin-3-ylmethyl)-2-[1-(4-ethoxy-2,6-difluorobenzyl)-1H-indazol-3-yl]-N-(pyridin-4-yl)pyrimidin-4-amine, salt with hydrochloric acid] | 6.36 | 5.72 | 8.11 | 6.38 |  |  |  |
| CCOc1cc(F)c(Cn2nc(-c3ncc(OCCO)c(Nc4ccncc4)n3)c3ccccc32)c(F)c1 [Example 3-1-1, 2-({2-[1-(4-ethoxy-2,6-difluorobenzyl)-1H-indazol-3-yl]-4-(pyridin-4-ylamino)pyrimidin-5-yl}oxy)ethanol, reference compound] | 5.96 | 5.82 |  | 5.85 | 7.96 |  |  |

More lines, main results first:

| pIC50 [1, 5] | pIC50 [2, 6] | pIC50 [3, 7] | pIC50 [4] | pIC50 [3, 8] | Molecule | pIC50 ([1]; co-treatment with Nocodazole 1 μg/ml, read-out: Biological Assay 4.1: H2A Formation IC50) | pIC50 [2, 9] |
| --- | --- | --- | --- | --- | --- | --- | --- |
| 8.80 | 5.96 | 8.10 | 6.92 |  | CCOc1cc(F)c(Cn2nc(-c3nc4c(c(Nc5ccncc5C)n3)CCC4)c3ccccc32)c(F)c1 [Example 2-14-2, 2-[1-(4-ethoxy-2,6-difluorobenzyl)-1H-indazol-3-yl]-N-(3-methylpyridin-4-yl)-6,7-dihydro-5H-cyclopenta[d]pyrimidin-4-amine] |  |  |
| 8.74 | 5.74 | 7.85 | 6.47 |  | CCOc1cc(F)c(Cn2nc(-c3ncc(CN)c(Nc4ccncc4)n3)c3ccccc32)c(F)c1 [Example 2-9-5, 5-(aminomethyl)-2-[1-(4-ethoxy-2,6-difluorobenzyl)-1H-indazol-3-yl]-N-(pyridin-4-yl)pyrimidin-4-amine, salt with hydrochloric acid] |  |  |
| 7.42 | < 5.00 |  | 6.17 |  | CCOc1cc(F)c(Cn2nc(-c3nc(C)c(F)c(Nc4ccnc(C(F)(F)F)c4)n3)c3ccccc32)c(F)c1 [Example 2-12-21, 2-[1-(4-ethoxy-2,6-difluorobenzyl)-1H-indazol-3-yl]-5-fluoro-6-methyl-N-[2-(trifluoromethyl)pyridin-4-yl]pyrimidin-4-amine] |  |  |
| 8.32 | 5.51 |  | 6.72 | 8.07 | CCOc1cc(F)c(Cn2nc(-c3ncc(C4CCNCC4)c(Nc4ccnc(NC(C)=O)c4)n3)c3ccccc32)c(F)c1 [Example 2-17-2, N-[4-({2-[1-(4-ethoxy-2,6-difluorobenzyl)-1H-indazol-3-yl]-5-(piperidin-4-yl)pyrimidin-4-yl}amino)pyridin-2-yl]acetamide] |  |  |
| 8.55 | 5.00 | 8.02 | 6.17 |  | CCOc1cc(F)c(Cn2nc(-c3nc4c(c(Nc5ccncc5F)n3)CCC4)c3ccccc32)c(F)c1 [Example 2-14-1, 2-[1-(4-ethoxy-2,6-difluorobenzyl)-1H-indazol-3-yl]-N-(3-fluoropyridin-4-yl)-6,7-dihydro-5H-cyclopenta[d]pyrimidin-4-amine] |  |  |
| 6.80 | 6.00 | 8.15 | 6.82 |  | CCOc1cc(F)c(Cn2nc(-c3ncc(CCN)c(Nc4ccnc(NC(C)=O)c4)n3)c3ccccc32)c(F)c1 [Example 2-9-13, N-[4-({5-(2-aminoethyl)-2-[1-(4-ethoxy-2,6-difluorobenzyl)-1H-indazol-3-yl]pyrimidin-4-yl}amino)pyridin-2-yl]acetamide, salt with hydrochloric acid] |  |  |
| 8.17 | 5.26 | 7.82 | 6.77 |  | CCOc1cc(F)c(Cn2nc(-c3ncc(CC(C)(C)N)c(Nc4ccncc4)n3)c3ccccc32)c(F)c1 [Example 2-9-18, 5-(2-amino-2-methylpropyl)-2-[1-(4-ethoxy-2,6-difluorobenzyl)-1H-indazol-3-yl]-N-(pyridin-4-yl)pyrimidin-4-amine, salt with hydrochloric acid] |  |  |
| 7.60 | 5.96 | 7.00 | 6.00 |  | CCOc1cc(F)c(Cn2nc(-c3nc4c(c(Nc5ncncn5)n3)CCC4)c3ccccc32)c(F)c1 [Example 2-12-52, 2-[1-(4-ethoxy-2,6-difluorobenzyl)-1H-indazol-3-yl]-N-(1,3,5-triazin-2-yl)-6,7-dihydro-5H-cyclopenta[d]pyrimidin-4-amine] |  |  |
| 7.39 | < 5.00 |  | 6.64 | 7.21 | CCOc1cc(F)c(Cn2nc(-c3ncc(CC4CN(CC(F)(F)F)C4)c(Nc4ccncc4)n3)c3ccccc32)c(F)c1 [Example 2-11-1, 2-[1-(4-ethoxy-2,6-difluorobenzyl)-1H-indazol-3-yl]-N-(pyridin-4-yl)-5-{[1-(2,2,2-trifluoroethyl)azetidin-3-yl]methyl}pyrimidin-4-amine] |  |  |
| 8.22 | 5.92 | 7.96 | 6.48 |  | CCOc1cc(F)c(Cn2nc(-c3nc4c(c(Nc5ccnc(C)c5)n3)CCC4)c3ccccc32)c(F)c1 [Example 2-12-6, 2-[1-(4-ethoxy-2,6-difluorobenzyl)-1H-indazol-3-yl]-N-(2-methylpyridin-4-yl)-6,7-dihydro-5H-cyclopenta[d]pyrimidin-4-amine] |  |  |
| 8.70 | 5.68 |  | 6.89 |  | CCOc1cc(F)c(Cn2nc(-c3nc4c(c(Nc5ccnc(C(F)(F)F)c5)n3)CNCC4)c3ccccc32)c(F)c1 [Example 2-9-17, 2-[1-(4-ethoxy-2,6-difluorobenzyl)-1H-indazol-3-yl]-N-[2-(trifluorometh-yl)pyridin-4-yl]-5,6,7,8-tetrahydro-pyrido[4,3-d]pyr-imidin-4-amine] |  |  |
